Where “and” joins values, the source holds several entries; their conditions need not be identical. Identical values can stand only once. Results filed as inconclusive are left out.
Test system: MX-1 breast xenograft, intrarenal, nude mice, tumor weight
Assay: NCI In Vivo Anticancer Drug Screen. Data for tumor model Human Mammary Carcinoma MX-1 Xenograft (intrarenal inoculation) in NU/NU BALB/C (nude) mice
Details: endpoint: mean tumor weight change, higher = larger tumour
How it was run: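 Mice w/ transplanted tumors, drug vs vehicle; endpoint survival or tumor size; value = T/C.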

[1] = dose: 150.0 mg/kg/injection, schedule: Q04DX003 (ip), vehicle: Klucel (hydroxypropylcellulose) (HPC)
[2] = dose: 300.0 mg/kg/injection, schedule: Q04DX003 (ip), vehicle: Klucel (hydroxypropylcellulose) (HPC)
[3] = dose: 600.0 mg/kg/injection, schedule: Q04DX003 (ip), vehicle: Klucel (hydroxypropylcellulose) (HPC)
[4] = dose: 600.0 mg/kg/injection, schedule: Q04DX003 (sc), vehicle: saline with Tween-80
[5] = dose: 2400.0 mg/kg/injection, schedule: Q04DX003 (sc), vehicle: saline with Tween-80
[6] = dose: 200.0 mg/kg/injection, schedule: Q04DX003 (ip), vehicle: saline
[7] = dose: 50.0 mg/kg/injection, schedule: Q04DX003 (ip), vehicle: saline with Tween-80
[8] = dose: 100.0 mg/kg/injection, schedule: Q04DX003 (ip), vehicle: saline with Tween-80

SMILES: Cc1cc(N(CCOS(C)(=O)=O)CCOS(C)(=O)=O)ccc1C=Nc1ccc(-c2nc(Cc3ccccc3)sc2C)cc1
- T/C (dose: 50.0 mg/kg/injection, schedule: Q01DX010 (sc), vehicle: Klucel (hydroxypropylcellulose) (HPC)): -72 % of control
- T/C (dose: 100.0 mg/kg/injection, schedule: Q01DX010 (sc), vehicle: Klucel (hydroxypropylcellulose) (HPC)): -60 % of control
- T/C (dose: 200.0 mg/kg/injection, schedule: Q01DX010 (sc), vehicle: Klucel (hydroxypropylcellulose) (HPC)): -90 % of control
- T/C (dose: 400.0 mg/kg/injection, schedule: Q01DX010 (sc), vehicle: Klucel (hydroxypropylcellulose) (HPC)): -86 % of control

SMILES: COc1ccc(Cl)[n+]([O-])n1
- T/C (dose: 25.0 mg/kg/injection, schedule: Q04DX003 (sc), vehicle: Klucel (hydroxypropylcellulose) (HPC)): 119 % of control
- T/C (dose: 50.0 mg/kg/injection, schedule: Q04DX003 (sc), vehicle: Klucel (hydroxypropylcellulose) (HPC)): 111 % of control
- T/C (dose: 100.0 mg/kg/injection, schedule: Q04DX003 (sc), vehicle: Klucel (hydroxypropylcellulose) (HPC)): 106 % of control

SMILES: Cn1c(-c2ccc(/C=N\N3CCN(/N=C/c4ccc(-c5c[n+]6ccsc6n5C)cc4)CC3)cc2)c[n+]2ccsc12
- T/C (dose: 3.0 mg/kg/injection, schedule: Q04DX003 (ip), vehicle: saline with Tween-80): 79 % of control

SMILES: CC(C)CC(=O)NC(C(=O)NC(C(=O)NC(CC(C)C)C(O)CC(=O)NC(C)C(=O)NC(CC(C)C)C(O)CC(=O)O)C(C)C)C(C)C (stereo not drawn)
- T/C (dose: 150.0 mg/kg/injection, schedule: Q04DX002 (ip), vehicle: Klucel (hydroxypropylcellulose) (HPC)): 47 % of control
- T/C [1]: 85 % of control
- T/C (dose: 300.0 mg/kg/injection, schedule: Q04DX002 (ip), vehicle: Klucel (hydroxypropylcellulose) (HPC)): 57 % of control
- T/C (dose: 600.0 mg/kg/injection, schedule: Q04DX002 (ip), vehicle: Klucel (hydroxypropylcellulose) (HPC)): 21 % of control

SMILES: CC(=O)CC(=O)CCC(=O)O
- T/C (dose: 300.0 mg/kg/injection, schedule: Q04DX003 (sc), vehicle: saline): 88 % of control
- T/C (dose: 1200.0 mg/kg/injection, schedule: Q04DX003 (sc), vehicle: saline): 78 % of control

SMILES: Cc1ccc(C2NC(=O)c3ccccc3N2)s1 (stereo not drawn)
- T/C (dose: 600.0 mg/kg/injection, schedule: Q04DX003 (sc), vehicle: Klucel (hydroxypropylcellulose) (HPC)): 105 % of control
- T/C (dose: 1200.0 mg/kg/injection, schedule: Q04DX003 (sc), vehicle: Klucel (hydroxypropylcellulose) (HPC)): 106 % of control
- T/C (dose: 2400.0 mg/kg/injection, schedule: Q04DX003 (sc), vehicle: Klucel (hydroxypropylcellulose) (HPC)): 118 % of control
- T/C (dose: 4800.0 mg/kg/injection, schedule: Q04DX003 (sc), vehicle: Klucel (hydroxypropylcellulose) (HPC)): 97 % of control

SMILES: COC(=O)C1(F)C(=O)NC(=O)NC1OC (stereo not drawn)
- T/C [1]: 85 % of control
- T/C [2]: 93 % of control
- T/C [3]: 43 % of control

SMILES: CCOC1=Cc2c(oc3c(C(C)(C)C)cc(OCC)cc23)OC(C(C)(C)C)=C1
- T/C (dose: 37.5 mg/kg/injection, schedule: Q04DX003 (sc), vehicle: saline with Tween-80): 94 % of control
- T/C (dose: 75.0 mg/kg/injection, schedule: Q04DX003 (sc), vehicle: saline with Tween-80): 98 % of control
- T/C (dose: 150.0 mg/kg/injection, schedule: Q04DX003 (sc), vehicle: saline with Tween-80): 121 % of control
- T/C (dose: 300.0 mg/kg/injection, schedule: Q04DX003 (sc), vehicle: saline with Tween-80): 92 % of control and 111 % of control
- T/C [4]: 77 % of control
- T/C [5]: 73 % of control

SMILES: Cc1ccc(C(=O)Nc2ccc(S(=O)(=O)O)c3cc(S(=O)(=O)O)cc(S(=O)(=O)O)c23)cc1NC(=O)c1cccc(NC(=O)Nc2cccc(C(=O)Nc3cc(C(=O)Nc4ccc(S(=O)(=O)O)c5cc(S(=O)(=O)O)cc(S(=O)(=O)O)c45)ccc3C)c2)c1
- T/C (dose: 50.0 mg/kg/injection, schedule: Q04DX003 (ip), vehicle: saline): 77 % of control
- T/C (dose: 100.0 mg/kg/injection, schedule: Q04DX003 (ip), vehicle: saline): 56 % of control
- T/C [6]: 51 % of control

SMILES: O=C(Nc1ccccc1)c1c(O)[nH]c(=S)[nH]c1=O
- T/C [7]: 85 % of control
- T/C (dose: 75.0 mg/kg/injection, schedule: Q04DX003 (ip), vehicle: saline with Tween-80): 98 % of control
- T/C [8]: 108 % of control

SMILES: COC1C(N)C(OC2C(Oc3cccc4c(O)c5c(=O)oc6ccc(C)c7c(=O)oc(c34)c5c67)OC(C)C(O)C2(C)O)OC(C)C1O (stereo not drawn)
- T/C (dose: 2.5 mg/kg/injection, schedule: Q04DX003 (ip), vehicle: lactic acid): 90 % of control
- T/C (dose: 10.0 mg/kg/injection, schedule: Q04DX003 (ip), vehicle: lactic acid): 6 % of control

SMILES: CCCNC1=C(C)C(=O)C2=C(C1=O)[C@H](COC(N)=O)[C@]1(OC)[C@@H]3N[C@@H]3CN21
- T/C (dose: 3.0 mg/kg/injection, schedule: Q04DX003 (sc), vehicle: saline): 13 % of control
- T/C (dose: 6.0 mg/kg/injection, schedule: Q04DX003 (sc), vehicle: saline): -77 % of control
- T/C (dose: 12.0 mg/kg/injection, schedule: Q04DX003 (sc), vehicle: saline): -100 % of control

SMILES: COC(=O)NC1C(C)OC(OC2C/C=C(/C)C3C=CC4C(OC5CC(OC6CC(O)C(OC7CC(O)C(OC)C(C)O7)C(C)O6)C(O)C(C)O5)C(C)CC(C)C4C3(C)/C(O)=C3\C(=O)OC4(CC(C)C(CO)=CC4/C=C\2C)C3=O)CC1(C)[N+](=O)[O-] (stereo not drawn)
- T/C (dose: 75.0 mg/kg/injection, schedule: Q04DX003 (ip), vehicle: Klucel (hydroxypropylcellulose) (HPC)): 110 % of control
- T/C [1]: 108 % of control

SMILES: O=C(NC(Cc1ccc(I)cc1)C(=O)O)c1cccc(Br)c1 (stereo not drawn)
- T/C [1]: 57 % of control
- T/C [2]: 72 % of control
- T/C [3]: 76 % of control

SMILES: Nc1nc(=S)c2[nH]cnc2[nH]1
- T/C (dose: 1.6 mg/kg/injection, schedule: Q01DX010 (sc), vehicle: Klucel (hydroxypropylcellulose) (HPC)): 50 % of control

SMILES: CNC(=O)Sc1ccc(C)c(N(C)C)c1
- T/C (dose: 150.0 mg/kg/injection, schedule: Q04DX003 (ip), vehicle: saline with Tween-80): 92 % of control
- T/C (dose: 300.0 mg/kg/injection, schedule: Q04DX003 (ip), vehicle: saline with Tween-80): 44 % of control

SMILES: O=C1NC(=O)NC(C(=O)O)N1
- T/C (dose: 200.0 mg/kg/injection, schedule: Q04DX003 (sc), vehicle: Klucel (hydroxypropylcellulose) (HPC)): 96 % of control
- T/C (dose: 400.0 mg/kg/injection, schedule: Q04DX003 (sc), vehicle: Klucel (hydroxypropylcellulose) (HPC)): 108 % of control

SMILES: CS(=O)(=O)CS(=O)(=O)OCCF
- T/C (dose: 6.25 mg/kg/injection, schedule: Q04DX003 (ip), vehicle: saline): 104 % of control
- T/C (dose: 12.5 mg/kg/injection, schedule: Q04DX003 (ip), vehicle: saline): 84 % of control
- T/C (dose: 25.0 mg/kg/injection, schedule: Q04DX003 (ip), vehicle: saline): 69 % of control

SMILES: Cc1cccc(OCC(O)CN2CC2)c1 (stereo not drawn)
- T/C [7]: 63 % of control
- T/C [8]: 62 % of control

SMILES: Cc1ccc(C(=O)NC2C(=O)NC(C(C)C)C(=O)N3CCCC3C(=O)N(C)CC(=O)N(C)C(C(C)C)C(=O)OC2C)c2c1Oc1c(c(C(=O)NC3C(=O)NC(C(C)C)C(=O)N4CCCC4C(=O)N(C)CC(=O)N(C)C(C(C)C)C(=O)OC3C)c3nc(-c4ccccc4)c(=O)oc3c1C)N2 (stereo not drawn)
- T/C (dose: 1.0 mg/kg/injection, schedule: Q04DX003 (ip), vehicle: water): 16 % of control and 26 % of control
- T/C (dose: 2.0 mg/kg/injection, schedule: Q04DX003 (ip), vehicle: water): 5 % of control

SMILES: CN1COc2c(n(C)c(=O)[nH]c2=O)C1
- T/C (dose: 100.0 mg/kg/injection, schedule: Q04DX003 (ip), vehicle: suspension in saline): 85 % of control
- T/C [6]: 92 % of control
- T/C (dose: 200.0 mg/kg/injection, schedule: Q04DX003 (ip), vehicle: suspension in saline): 65 % of control
- T/C (dose: 400.0 mg/kg/injection, schedule: Q04DX003 (ip), vehicle: saline): 103 % of control
- T/C (dose: 400.0 mg/kg/injection, schedule: Q04DX003 (ip), vehicle: suspension in saline): 68 % of control
- T/C (dose: 800.0 mg/kg/injection, schedule: Q04DX003 (ip), vehicle: saline): 102 % of control
- T/C (dose: 800.0 mg/kg/injection, schedule: Q04DX003 (ip), vehicle: suspension in saline): 72 % of control

SMILES: CC(=O)ON(C(C)=O)c1ccc(C(N)=O)cc1
- T/C [4]: 52 % of control
- T/C [5]: 98 % of control

SMILES: COc1cc(C(CC(C)=O)c2cc3c(cc2OC(C)=O)OCO3)cc(OC)c1OC (stereo not drawn) (tested in a mixture with another compound)
- T/C [7]: 59 % of control
- T/C (dose: 72.0 mg/kg/injection, schedule: Q04DX003 (ip), vehicle: saline with Tween-80): 103 % of control
- T/C [8]: 34 % of control
- T/C (dose: 120.0 mg/kg/injection, schedule: Q04DX003 (ip), vehicle: saline with Tween-80): 110 % of control
- T/C (dose: 200.0 mg/kg/injection, schedule: Q04DX003 (ip), vehicle: saline with Tween-80): 19 % of control and 20 % of control

SMILES: NC(N)=NS(=O)(=O)c1ccc(NCc2c3ccccc3nc3ccccc23)cc1
- T/C [1]: 38 % of control and 41 % of control
- T/C [2]: 40 % of control and 43 % of control
- T/C [3]: 17 % of control and 22 % of control
- T/C (dose: 1200.0 mg/kg/injection, schedule: Q04DX003 (ip), vehicle: Klucel (hydroxypropylcellulose) (HPC)): 11 % of control and 17 % of control

Reference: PubChem BioAssay AID298 (DTP/NCI, 2004)
